Molecules are shown by their SMILES.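 Assay format: 96-well plates, 48-hour exposure. Abbreviation: GI50, concentration required for 50% inhibition of growth. Definition used: TGI = concentration required for complete inhibition of growth.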

TGI and GI50 data for 35 compounds are collected here from PubChem BioAssay (NCI).

Test systems include KM20L2 colon; LXFL 529 NSCLC; RXF-631 renal; DMS 114 small cell lung; HOP-18 NSCLC; XF 498 CNS; SNB-78 CNS; DLD-1 colon; MDA-N.
Common to all, as to assay: growth of human tumour cells (NCI), 48 h

For `FC(F)(F)c1nc(Br)[nH]c1C(F)(F)F`, the TGI with KM20L2 colon was > 100 µM; with LXFL 529 NSCLC it was > 100 µM; in the assay on RXF-631 renal, > 100 µM; in the assay with DMS 114 small cell lung it was > 100 µM; in the assay on HOP-18 NSCLC, 93.2 µM; with XF 498 CNS it was > 100 µM. The TGI in the assay on SNB-78 CNS and in the assay with DLD-1 colon was > 100 µM each time.

As for `NS(=O)(=O)c1cc(C(=O)O)c(Cl)c([N+](=O)[O-])c1Cl`, the TGI with MDA-N was > 100 µM.

As for `O=C(Nc1cc2cc([N+](=O)[O-])ccc2oc1=O)c1cccs1`, the TGI with MDA-N is > 100 µM.

Consider `O=C(NCc1ccccc1)C1C(=O)C(=O)N(Cc2ccccc2)C1=O` (stereo unspecified), for which the TGI in the assay with KM20L2 colon, with LXFL 529 NSCLC, in the assay with RXF-631 renal, in the assay on HOP-18 NSCLC, in the assay with SNB-78 CNS and with DLD-1 colon was > 100 µM in each case.

For the compound `Cc1ccc(NC(=O)CCC(=O)C2Cc3ccccc3C2=O)cc1C` (stereo unspecified), the TGI in the assay on KM20L2 colon, with LXFL 529 NSCLC, with DMS 114 small cell lung, in the assay on HOP-18 NSCLC, in the assay with XF 498 CNS and in the assay with SNB-78 CNS was > 100 µM each time. Besides, the TGI with DLD-1 colon is > 100 µM.

With `COc1cc(/C=C/c2ccnc3ccccc23)cc(OC)c1OC`, the TGI with MDA-N came out at 1.74 µM.

Regarding `CCC(C)C(=O)OC1CCC=C2C=CC(C)C(CCC3CC(O)CC(=O)O3)C21` (stereo unspecified), in the assay with MDA-N, the TGI was > 100 µM.

For `O=C(O)CCSC(=O)Nc1ccccc1`, the TGI in the assay with KM20L2 colon, in the assay on LXFL 529 NSCLC, in the assay on SNB-78 CNS and with DLD-1 colon was > 100 µM throughout.

In the case of `O=C(O)c1[nH]c2c([N+](=O)[O-])cc([N+](=O)[O-])cc2c1C(=O)O`, the TGI with MDA-N was 92.9 µM.

Consider `CCOC(=O)CCn1cnc(N)n1`, for which the TGI with KM20L2 colon, in the assay on LXFL 529 NSCLC, in the assay with RXF-631 renal, in the assay on DMS 114 small cell lung, in the assay with HOP-18 NSCLC and with XF 498 CNS was > 100 µM each time. Also, the TGI in the assay on SNB-78 CNS and in the assay with DLD-1 colon was > 100 µM each time.

With `C=C1C(C(=O)O)C1C(=O)O` (stereo unspecified), the TGI in the assay on KM20L2 colon, in the assay on DMS 114 small cell lung, in the assay with HOP-18 NSCLC, with XF 498 CNS, in the assay on SNB-78 CNS and in the assay with DLD-1 colon was > 100 µM throughout.

Turning to `CCc1cccc(NC(=O)c2cc(/C=C/c3ccccc3)[nH]c(=S)n2)c1`, the TGI in the assay with KM20L2 colon, in the assay with LXFL 529 NSCLC, with DMS 114 small cell lung, in the assay with HOP-18 NSCLC and with SNB-78 CNS was > 100 µM in each case.

Turning to `CC(=O)[CH-]C(=O)c1ccccc1.CC(=O)[CH-]C(=O)c1ccccc1.CC(=O)[CH-]C(=O)c1ccccc1.[Br-].[Zr+4]`, the figures for the GI50 in the assay with KM20L2 colon, with LXFL 529 NSCLC and with DLD-1 colon were 51.6 µM, 70.7 µM and 28.1 µM, respectively. The TGI with KM20L2 colon, in the assay on LXFL 529 NSCLC and in the assay with DLD-1 colon was > 100 µM in each case.

For the compound `N#CC(C#N)=C1CCC2C(=C(C#N)C#N)CCC12` (stereo unspecified), the TGI with KM20L2 colon, with LXFL 529 NSCLC, in the assay on RXF-631 renal, with DMS 114 small cell lung, in the assay with XF 498 CNS and in the assay on SNB-78 CNS was > 100 µM each time. Besides, the TGI in the assay on DLD-1 colon was > 100 µM.

In the case of `CCc1ccccc1NC(=O)C(=O)C(C#N)c1c(Cl)cccc1Cl` (stereo unspecified), the TGI with KM20L2 colon, in the assay with LXFL 529 NSCLC, in the assay on RXF-631 renal, in the assay on XF 498 CNS, in the assay on SNB-78 CNS and in the assay on DLD-1 colon was > 100 µM in each case.

Turning to `c1ccc(/C(=N\Nc2nc3ccccc3s2)c2ccccn2)cc1`, in the assay with MDA-N, the TGI is > 100 µM.

Regarding `O=C(OCc1ccccc1)n1cccc1`, the TGI in the assay with KM20L2 colon, in the assay with LXFL 529 NSCLC, with RXF-631 renal, with DMS 114 small cell lung, in the assay on HOP-18 NSCLC and in the assay on XF 498 CNS was > 100 µM each time. Moreover, the TGI in the assay with SNB-78 CNS and in the assay on DLD-1 colon was > 100 µM in each case.

Take `CC(=N\O)/C(C)=N/O.CC(=N\O)/C(C)=N/O.[Fe].[NH2-].c1c[nH]cn1`: in the assay with MDA-N, the GI50 is > 100 µM and the TGI is > 100 µM.

Take `O=c1[nH]c(=O)n(C2OC(CO)C(O)C2O)cc1F` (stereo unspecified): the TGI with KM20L2 colon is > 100 µM; in the assay with LXFL 529 NSCLC, > 100 µM; in the assay on RXF-631 renal, > 100 µM; in the assay on DMS 114 small cell lung, > 100 µM; in the assay with HOP-18 NSCLC, > 100 µM; in the assay on MDA-N it was > 70.5 µM. Besides, the results for the TGI in the assay with XF 498 CNS, in the assay with SNB-78 CNS and in the assay on DLD-1 colon were > 100 µM, 60.1 µM and > 100 µM, respectively.

In the case of `CC(=N/NC(N)=S)/C(C)=N/NC(N)=S`, in the assay on MDA-N, the TGI was > 100 µM.

As for `CCN(CC)CCCC(C)Nc1ccnc(/C=C/c2ccc(Cl)cc2)c1` (stereo unspecified), the TGI in the assay with MDA-N was found to be 3.62 µM.

Take `COc1ccc(C(Nc2ccccn2)c2cc(C(C)(C)C)cc(C(C)(C)C)c2O)cc1` (stereo unspecified): the TGI with MDA-N is > 100 µM.

Turning to `O=C1CCc2ccc(O)c(c2)Oc2ccc(cc2)[C@@H]2O[C@@H]2CO1`, the TGI is > 100 µM in the assay on KM20L2 colon; > 100 µM in the assay with LXFL 529 NSCLC; 67 µM in the assay with DMS 114 small cell lung; 80.7 µM with HOP-18 NSCLC; 30.6 µM with XF 498 CNS; > 100 µM with DLD-1 colon.

As for `CC[P+]1(c2ccccc2)CCCCC1`, the TGI in the assay with KM20L2 colon, in the assay on LXFL 529 NSCLC, with RXF-631 renal, with DMS 114 small cell lung, in the assay on HOP-18 NSCLC and in the assay with SNB-78 CNS was > 100 µM in each case. In the assay with DLD-1 colon, the TGI was > 100 µM.

In the case of `CN(C)CCNC(=O)c1cccc2c1nc(-c1ccncc1)c1ccccc12`, the TGI with DMS 114 small cell lung came to 14.2 µM; with HOP-18 NSCLC it was 51.1 µM; in the assay on SNB-78 CNS it was 23.2 µM; in the assay with DLD-1 colon, 14.2 µM.

For the compound `c1ccc2c(c1)[nH]c1c3ccccc3sc21`, the TGI with MDA-N was > 100 µM.

Consider `CNC(=O)NCCN1N=C(C)/C(=C\c2ccccc2)CC1=O`, for which the TGI in the assay on LXFL 529 NSCLC, with RXF-631 renal, in the assay with XF 498 CNS, with SNB-78 CNS and in the assay on DLD-1 colon was > 100 µM each time.

With `O=C(O)c1cc(Cl)cc(Cc2cc(Cl)cc(C(=O)O)c2O)c1O`, in the assay with MDA-N, the TGI was > 100 µM.

For `CCSCCCC(=O)O`, the TGI in the assay with MDA-N was > 100 µM.

Regarding `N#CCC(=O)Nc1ccccc1O`, the TGI in the assay on KM20L2 colon, in the assay with LXFL 529 NSCLC, in the assay with RXF-631 renal, in the assay with HOP-18 NSCLC, in the assay with XF 498 CNS and in the assay with SNB-78 CNS was > 100 µM in each case. In addition, the TGI in the assay with DLD-1 colon was > 100 µM.

Consider `C/C(=N\NC(=S)N1CCN(c2ccccn2)CC1)c1cccc2cccnc12`, for which, in the assay on MDA-N, the TGI was > 100 µM.

`Oc1ccc(/C=N/NC(=S)Nc2cccnc2)nc1`: the TGI in the assay on MDA-N was > 100 µM.

`Cc1cn(C2CC(O)C(COC(N)=O)O2)c(=O)[nH]c1=O` (stereo unspecified): the TGI in the assay with MDA-N is > 100 µM.

For the compound `C=CCC1C(=O)CC2(C)C(CC=C)C(=O)CC12C` (stereo unspecified), the TGI in the assay with KM20L2 colon, in the assay with LXFL 529 NSCLC, with RXF-631 renal, with HOP-18 NSCLC, with XF 498 CNS and in the assay on DLD-1 colon was > 100 µM each time.

`O=C1c2ccccc2C(=O)c2sc(Nc3ccc([N+](=O)[O-])cc3)nc21`: the TGI with KM20L2 colon was 45.6 µM; in the assay on LXFL 529 NSCLC, 3.06 µM; in the assay with RXF-631 renal, > 55.1 µM; in the assay on DMS 114 small cell lung it was 6.32 µM; in the assay on HOP-18 NSCLC, 9.03 µM; with MDA-N it was 3.49 µM. The TGI with XF 498 CNS stood at 4.18 µM; in the assay with SNB-78 CNS, 42 µM; in the assay on DLD-1 colon, 11.5 µM.
